Data as given in patent US10479808B1, “Bisphosphonate-based coordination complexes as enhanced pharmaceutical formulations and method of preparing the same” (University of Puerto Rico, priority 2018, dated 2019).
Entries after “also recorded” stand apart in the source; their conditions may differ.

Experiments:
Type in all cases: physicochemical
[1] = Dissolution profile in PBS (pH 7.40), ALEN-Cu complexation, UV-Vis; settings: for order of structural stability of the complexes: PBS pH 7.40, from dissolution profiles
[2] = Dissolution profile in FaSSGF (pH 1.60), ALEN-Cu complexation, UV-Vis; settings: for order of structural stability of the complexes: FaSSGF pH 1.60, from dissolution profiles
[3] = Thermal stability by thermal gravimetric analysis (TGA) under N2
Procedure: Thermographs were recorded in a TGA Q500 (TA Instruments Inc.). Thermograph of the BP and pBioCCs were collected using a temperature range of 30-700° C. at 5° C./min under a N2 gas purge. In all cases, ˜10 mg of powder sample was thermally treated. Data was analyzed with TA Universal Analysis software version 4.3A.
It was expected that the thermograph of each pBioCCs consists of at least two mayor decomposition profiles one at lower temperature representing the loss of coordinated or lattice water molecules, and another at higher temperature which accounts for the thermal combustion of the organic moiety, the BP ligand, in this case ALEN. A third decomposition event might be observed above 350° C., due to the thermal degradation of the metal/metal oxide.

Row | Compound | time to reach maximum release ([1]; PBS pH 7.40, 37 °C) [min] | time to reach maximum release ([2]; FaSSGF pH 1.60, 37 °C) [s] | order of structural stability of the complexes [1] | thermal stability (in words) [3] | order of structural stability of the complexes [2]
1 | NCCCC(O)(P(=O)(O)O)P(=O)(O)O [ALEN, Alendronate sodium trihydrate, reference compound] | 10 | 10 | – | – | –
2 | NCCCC(O)(P(=O)([O-])O)P(=O)([O-])O.O.[Ca+2] [ALEN-Ca form I] | – | – | ALEN-Mg<ALEN-Ca form I<ALEN-Ca form II<ALEN-Zn form I<ALEN-Zn form II | high thermal stability | less stable; also recorded: ALEN-Ca form I<ALEN-Ca form II<ALEN-Zn form I<ALEN-Mg<ALEN-Zn form II
3 | NCCCC(O)(P(=O)([O-])O)P(=O)([O-])O.O.[Zn+2] [ALEN-Zn form I] | – | – | ALEN-Mg<ALEN-Ca form I<ALEN-Ca form II<ALEN-Zn form I<ALEN-Zn form II | high thermal stability | ALEN-Ca form I<ALEN-Ca form II<ALEN-Zn form I<ALEN-Mg<ALEN-Zn form II
